Data: patent US20160030416A1, “METHODS OF TREATING B2-BRADYKININ RECEPTOR MEDIATED ANGIOEDEMA” (SHIRE HUMAN GENETIC THERAPIES, INC., priority 2013, published 2016)

How the values were obtained:
plasma extravasation [1] = assay: Plasma extravasation (Evans blue in bladder), oral gavage, wild-type male mice; assay type: in vivo, wild-type (WT) C57/BL6 male mice; conditions: for inhibition of plasma extravasation at % (compared to vehicle controls): after 64 minutes
Excerpt: (§1) In vivo experiments in both wild-type (WT) C57BL/6J mice and C1-inhibited knock out (C1 INH KO) mice measured pharmacodynamic efficacy by the ability of CFMQ to block plasma extravasation, which is causative to edema, the most important symptom requiring treatment in HAE subjects. This plasma extravasation model has been used extensively in the literature to investigate the efficacy of bradykinin receptor antagonists. (Han et al., “Increased vascular permeability in C1 inhibitor-deficient mice mediated by the bradykinin type 2 receptor,” J Clin Invest, 2002 April; 109(8): 1057-1063.)
The uptake and effective blocking of plasma extravasation of CFMQ (HGT3711) was examined following oral administration in wild-type (WT) C57/BL6 male mice (n=4/dose group). Mice received a single oral gavage of CFMQ (HGT3711) (10 μL/g) at 3.0 or 10 mg/kg. Blood samples were taken at 20 and 60 minutes post-dose. Following oral administration CFMQ (HGT3711) administration and prior to the terminal time point, mice received an IV injection of Evans blue (EB) dye (30 mg/kg) and were sacrificed. Similar to the IV study, EB concentration in the formamide extract was determined spectrophotometrically (μg EB per milligram of tissue) and efficacy was determined by inhibiting the accumulation of EB in the bladder.

[2] = Pharmacokinetics, single oral gavage, 2 formulations, Wistar and Sprague-Dawley rats; assay type: in vivo; conditions: for AUC(0-inf) / AUC(0-t) / Cmax / Tmax / half-life: rat, plasma, po
Procedure: Pharmacokinetics and gender differences were evaluated with 2 different formulations of CFMQ (HGT3711) in 2 different types of rat models. These attributes were investigated in a single oral gavage study. Male and female Wistar rats (n=3 per dose group) received CFMQ (HGT3711) at 15, […], and or 150 mg/kg. […] The two vehicle formulations evaluated were formulation 1: 10% N-methyl pyrrolidone (NMP): 10% Ethanol: 30% polyethylene glycol (PEG400): 50% […] (lauroyl polyoxylglycerides); and formulation 2: 10% NMP: 0% PEG400: 20% CREMOPHOR EL (Macrogolglycerol ricinoleate): 25% […] 44/14 (lauroyl polyoxylglycerides): 25% CAPROYOL 90 (Propylene Glycol Caprylate).
Blood samples were taken via cardiac puncture prior to administration and at 0.25 (15 min), 0.50 (30 min), 1, 2, 4, 8 and 24 hours post dose. Plasma concentrations of CFMQ (HGT3711) were determined by LC-MS/MS and nominal dosing concentrations were used in all calculations.

plasma extravasation [3] = assay: Plasma extravasation (Evans blue in bladder), IV bolus, wild-type mice; assay type: in vivo, wild-type (WT) C57/BL6 male mice; conditions: for Evans blue (EB) in the bladder: controls 0.7927
Excerpt: as §1
The uptake and effective blocking of plasma extravasation of CFMQ was examined following IV (intravenous) bolus administration in wild-type (WT) C57/BL6 male mice (n=4/dose group). Mice received CFMQ (HGT3711) (2 μL/g) at 1.0 μg/kg, 100 μg/kg, and/or 6 mg/kg. Following CFMQ administration and prior to the terminal time point, mice received an IV injection of Evans blue (EB) dye (30 mg/kg) and were sacrificed. The bladder was removed, dried and weighed and extracted in formamide (1.0 mL). EB concentration in the formamide extract was determined spectrophotometrically and EB content was calculated as μg EB per milligram of tissue weight. Efficacy was determined by inhibiting the accumulation of EB in the bladder.
CFMQ doses of 0.001, 0.05, 0.1, 0.25, 0.5, 1.0, and or 3.0 mg/kg were administered as IV bolus injections to WT mice (n=8/dose group).

[4] = female, Sprague-Dawley, 75 mg/kg, Formulation 1, S-D (Female)
[5] = female, Sprague-Dawley, 75 mg/kg, Formulation 2, S-D (Female)
[6] = female, Wistar, 15 mg/kg, Formulation 1, Wistar (Female)
[7] = female, Wistar, 15 mg/kg, Formulation 2, Wistar (Female)
[8] = female, Wistar, 75 mg/kg, Formulation 1, Wistar (Female)
[9] = female, Wistar, 75 mg/kg, Formulation 2, Wistar (Female)
[10] = female, Wistar, 150 mg/kg, Formulation 1, Wistar (Female)
[11] = female, Wistar, 150 mg/kg, Formulation 2, Wistar (Female)
[12] = male, Sprague-Dawley, 75 mg/kg, Formulation 1, S-D (Male)
[13] = male, Sprague-Dawley, 75 mg/kg, Formulation 2, S-D (Male)
[14] = male, Wistar, 15 mg/kg, Formulation 1, Wistar (Male)
[15] = male, Wistar, 15 mg/kg, Formulation 2, Wistar (Male)
[16] = male, Wistar, 75 mg/kg, Formulation 1, Wistar (Male)
[17] = male, Wistar, 75 mg/kg, Formulation 2, Wistar (Male)
[18] = male, Wistar, 150 mg/kg, Formulation 1, Wistar (Male)
[19] = male, Wistar, 150 mg/kg, Formulation 2, Wistar (Male)

Compound: Cc1cc(Cl)c(COc2cccc3c(-n4cc(F)cn4)cc(C)nc23)c(Cn2cccc(C#N)c2=O)n1 [CFMQ, 1-((4-Chloro-3-(((4-(4-fluoro-1H-pyrazol-1-yl)-2-methylquinolin-8-yl)oxy)methyl)-6-methylpyridin-2-yl)methyl)-2-oxo-1,2-dihydropyridine-3-carbonitrile]
- inhibition of plasma extravasation to % (compared to vehicle controls) (plasma extravasation [1]; oral 3.0 mg/kg, 4 minutes post dose): 56%
- inhibition of plasma extravasation to % (compared to vehicle controls) (plasma extravasation [1]; oral 3.0 mg/kg, 24 minutes post dose): 58%
- inhibition of plasma extravasation at % (compared to vehicle controls) (plasma extravasation [1]; oral 3.0 mg/kg): 72%
- inhibition of plasma extravasation to % (compared to vehicle controls) (plasma extravasation [1]; oral 10 mg/kg, 4 minutes post dose): 14%
- inhibition of plasma extravasation to % (compared to vehicle controls) (plasma extravasation [1]; oral 10 mg/kg, 24 minutes post dose): 21%
- inhibition of plasma extravasation at % (compared to vehicle controls) (plasma extravasation [1]; oral 10 mg/kg): 75%
- oral exposure in female rats compared to male rats ([2]; average dose normalized AUC values, both S-D and Wistar): 20-40 times
- AUC(0-inf) [2, 4]: 14300 ng·h/mL
- AUC(0-t) [2, 4]: 11900 ng·h/mL
- Cmax [2, 4]: 2280 ng/mL
- Tmax [2, 4]: 0.5 h
- half-life [2, 4]: 2.01 h
- AUC(0-inf) [2, 5]: 20800 ng·h/mL
- AUC(0-t) [2, 5]: 20600 ng·h/mL
- Cmax [2, 5]: 2180 ng/mL
- Tmax [2, 5]: 0.83 h
- half-life [2, 5]: 3.58 h
- AUC(0-inf) [2, 6]: 6650 ng·h/mL
- AUC(0-t) [2, 6]: 4660 ng·h/mL
- Cmax [2, 6]: 1140 ng/mL
- Tmax [2, 6]: 0.83 h
- half-life [2, 6]: 3.1 h
- AUC(0-inf) [2, 7]: 5810 ng·h/mL
- AUC(0-t) [2, 7]: 5210 ng·h/mL
- Cmax [2, 7]: 592 ng/mL
- Tmax [2, 7]: 3.33 h
- half-life [2, 7]: 6.08 h
- AUC(0-inf) [2, 8]: 11100 ng·h/mL
- AUC(0-t) [2, 8]: 11100 ng·h/mL
- Cmax [2, 8]: 2550 ng/mL
- Tmax [2, 8]: 0.58 h
- half-life [2, 8]: 3.13 h
- AUC(0-inf) [2, 9]: 11300 ng·h/mL
- AUC(0-t) [2, 9]: 10700 ng·h/mL
- Cmax [2, 9]: 2200 ng/mL
- Tmax [2, 9]: 0.75 h
- half-life [2, 9]: 3.12 h
- AUC(0-inf) [2, 10]: 9060 ng·h/mL
- AUC(0-t) [2, 10]: 8710 ng·h/mL
- Cmax [2, 10]: 1850 ng/mL
- Tmax [2, 10]: 0.33 h
- half-life [2, 10]: 5.42 h
- AUC(0-inf) [2, 11]: 6440 ng·h/mL
- AUC(0-t) [2, 11]: 6430 ng·h/mL
- Cmax [2, 11]: 1580 ng/mL
- Tmax [2, 11]: 0.33 h
- half-life [2, 11]: 2.64 h
- AUC(0-inf) [2, 12]: 435 ng·h/mL
- AUC(0-t) [2, 12]: 410 ng·h/mL
- Cmax [2, 12]: 187 ng/mL
- Tmax [2, 12]: 0.5 h
- half-life [2, 12]: 1.96 h
- AUC(0-inf) [2, 13]: 745 ng·h/mL
- AUC(0-t) [2, 13]: 673 ng·h/mL
- Cmax [2, 13]: 191 ng/mL
- Tmax [2, 13]: 0.67 h
- half-life [2, 13]: 3.43 h
- AUC(0-inf) [2, 14]: 229 ng·h/mL
- AUC(0-t) [2, 14]: 218 ng·h/mL
- Cmax [2, 14]: 77.4 ng/mL
- Tmax [2, 14]: 0.5 h
- half-life [2, 14]: 1.67 h
- AUC(0-inf) [2, 15]: 155 ng·h/mL
- AUC(0-t) [2, 15]: 175 ng·h/mL
- Cmax [2, 15]: 34.7 ng/mL
- Tmax [2, 15]: 0.83 h
- half-life [2, 15]: 1.74 h
- AUC(0-inf) [2, 16]: 282 ng·h/mL
- AUC(0-t) [2, 16]: 243 ng·h/mL
- Cmax [2, 16]: 155 ng/mL
- Tmax [2, 16]: 0.25 h
- half-life [2, 16]: 4.28 h
- AUC(0-inf) [2, 17]: 261 ng·h/mL
- AUC(0-t) [2, 17]: 219 ng·h/mL
- Cmax [2, 17]: 94.9 ng/mL
- Tmax [2, 17]: 0.5 h
- half-life [2, 17]: 3.35 h
- AUC(0-inf) [2, 18]: 397 ng·h/mL
- AUC(0-t) [2, 18]: 309 ng·h/mL
- Cmax [2, 18]: 277 ng/mL
- Tmax [2, 18]: 0.25 h
- half-life [2, 18]: 1.63 h
- AUC(0-inf) [2, 19]: 260 ng·h/mL
- AUC(0-t) [2, 19]: 199 ng·h/mL
- Cmax [2, 19]: 119 ng/mL
- Tmax [2, 19]: 0.25 h
- half-life [2, 19]: 2.43 h
- adverse reactions ([2]; single oral gavage 15-150 mg/kg, rats): No adverse reactions were observed
- increase in exposure, females compared to males ([2]; within both formulations): > 5 fold
- Evans blue (EB) in the bladder (plasma extravasation [3]; IV bolus 1.0 μg/kg): 0.7602 EB mg/kg tissue
- Evans blue (EB) in the bladder (plasma extravasation [3]; IV bolus 6 mg/kg): 0.0701 EB mg/kg tissue
- inhibition of plasma extravasation vs vehicle (plasma extravasation [3]; IV bolus 0.5, 1.0, and or 3.0 mg/kg, n=8): significant inhibition of plasma extravasation
- inhibition of extravasation (plasma extravasation [3]; IV bolus 1.0 and or 100 μg/kg): did not inhibit extravasation
- ED50 (plasma extravasation [3]; Mus musculus, intravenous, WT model, read-out: effective dose (ED50), plasma extravasation): 0.46 mg/kg
- block of plasma extravasation (plasma extravasation [3]; intravenous, high doses (500 μg/kg)): blocked plasma extravasation completely
